Consider three molecules from patent US20010025038A1, “Method of reducing craving in mammals” (priority 1997, published 2001).

For data set [1] the following is noted: in vivo; cited from earlier work.
For another data set, the system named is male CF-1 mice. The data set can be described thus: cocaine induced locomotor stimulation in mice (Example 1). In kind it is in vivo. The conditions noted are these: for cocaine induced increase in locomotor activity: oral dose 20 minutes before cocaine sc; for locomotor activity, drug administered alone: oral dose, 8 minute period. The procedure: Cocaine-produced increases in locomotor activity were blocked by D1/D5 antagonists, but not by D2/D3 antagonists unless relatively high doses were used. In this example, a selective D1/D5 antagonist, SCH 39166, and a selective D2/D3 antagonist, raclopride, were studied on cocaine induced locomotor stimulation in male CF-1 mice. The mice were given an oral dose of SCH 39166, raclopride or vehicle, followed 20 minutes later by a dose of cocaine or vehicle administered subcutaneously (sc).

For data set [2] the following is noted: in vivo; cited from earlier work. This is another data set of the same source.
The test system of a further data set is rodent. The data set can be described thus: rodent model of food craving and relapse after food restriction. In kind it is in vivo. From the text: (§1) While not wishing to be bound by any theory, D1/D5 antagonists and/or D1/D5 partial agonists may prevent dietary relapse in the treatment of obesity by blocking the rewarding effects of dopamine at the D1/D5 sites associated with cravings.

Data set [3] relates to adult male Sprague-Dawley (SD) rats. Briefly: NPY-stimulated food intake in rats (Example 5). The data set is classed as in vivo. As to conditions: 3 mpk ip 30 minutes before i.c.v. NPY. The method, then: In this experiment, a baseline food intake (in grams) was measured at time intervals of 2, 4, or 24 hours following interocerebral ventricular (i.c.v.) administration of neuropeptide “Y” (NPY), a compound that stimulates an animal to consume food. A 3 μg/5 μl volume of NPY was administered to adult male Sprague-Dawley (SD) rats. On test day, three groups of rats (five rats per group) were pretreated with SCH39166 according to the following dosing schedule:
A dose of SCH39166 was injected intraperitoneally (ip). Thirty minutes later, a […] i.c.v. injection of NPY was administered. The control animals received an ip injection of the vehicle methylcellulose. Thirty minutes later, animals received NPY ([…]). A second group received 1 mpk of SCH39166 ip, and thirty minutes later received […] of NPY. A third group of animals received 3 mpk of SCH39166 ip and thirty minutes later received […] of NPY. Food intake was measured 2 hours, 4 hours, and 24 hours following NPY administration.

A further data set deals with ob/ob mice. Briefly: food intake in genetically obese ob/ob mice (Example 4). As to conditions: 3.0 mg/kg ip, p<0.02. The data set is classed as in vivo. The method, then: Twenty four male mice of a genetically obese strain, i.e. ob/ob mice, aged 16 weeks were individually housed in Nalgene metabolism cages in a reverse light cycle room for the entire duration of the study. Mice were allowed food and water ad libitum. The mice were divided into 5 groups of 4-5 mice each based on baseline food intake and body weight. Mice were dosed intraperitoneally (ip) with vehicle, 0.003, 0.03, 0.3, or 3.0 mg/kg SCH 39166 at the onset of the dark cycle and a known mass of standard rodent chow was provided. Food consumption was measured after five hours, and another ip injection of vehicle or drug was given. Food intake was measured again at 24 hours after the initial injection. These injections and measurements were continued for 72 hours. Seventy two hour cumulative food intake was decreased 17% at 3.0 mg/kg (p<0.02).

In data set [4] the test system is cocaine-dependent patients. The data set can be described thus: multi-center double blind study in cocaine-dependent patients, interim analysis (Example 6). In kind it is in vivo.
The subject of a further data set is healthy volunteers. The data set can be described thus: crossover d-amphetamine study in healthy volunteers. The conditions noted are these: 100 mg pretreatment, 15 mg d-amphetamine, vs placebo. The data set is classed as in vivo. The procedure:
Similarly, in a second crossover study in healthy volunteers administered 15 mg d-amphetamine following pretreatment with 100 mg SCH 39166 or placebo, attenuation of amphetamine euphoric (FIG. 12) and dysphoric (FIG. 13) effects were also observed for SCH 39166 in comparison with the placebo.

A further data set concerns monkeys. The conditions noted are these: monkeys administered SCH 39166; cited from earlier work.
Data set [5] relates to adult male rats (strain: CD). The data set can be described thus: bar press for food on fixed-ratio schedule FR30 (Example 3). The data set is classed as in vivo. The procedure:
In this example, adult male rats (strain: CD) were trained to bar press for food on a fixed-ratio schedule of 30 (FR30). A rat had to press a bar 30 times in order to receive one 45 mg pellet of food. Each training session was 30 minutes long. The total response rate (total # of bar presses/30 minutes), i.e., the rate at which rats pressed the bar, was measured and then analyzed in animals that were initially given saline (control animals) and then doses of the D1/D5 antagonists SCH23390 or SCH39166. Each group of six animals received one dose of drug given subcutaneously in a volume of 1 ml/kg 30 minutes before the start of the session.

For the next data set, the system named is primate. Briefly: primate model of food craving and relapse after food restriction. The data set is classed as in vivo.
Excerpt: as §1

For data set [6] the following is noted: up to 3 mg/k; cited from earlier work.
The conditions of data set [7]: cocaine relapse model; cited from earlier work.
For data set [8], the system named is people who previously had exhibited a cocaine addiction. The data set is classed as in vivo, humans. The method, then: In a double-blind study, the subjects were administered placebo 10 mg of SCH39166, 25 mg of SCH 39166, or 100 mg of SCH 39166 two hours prior to an injection of […] of cocaine. Systolic and diastolic blood pressure in the individuals was measured from 2 hours prior to cocaine injection until approximately 4 hours after cocaine administration.
In the same study, the desire to take cocaine was measured as a function of time after administration of placebo or varying doses of SCH 39166. The desire to take cocaine was measured by the Visual Analog Scale test. This test procedure is described in the British Journal of Medical Psychology, Volume 47. pp 211-218 (1974). In this test the individuals are asked to subjectively rate their feelings to take cocaine on a scale of zero-100, with zero representing no desire at all and 100 representing the strongest feelings. As may be seen in FIG. 7, the euphoric “high” following cocaine administration was lower in patients who had been pre-treated with SCH 39166, particularly a dose of 100 mg.
Even if the compounds of this invention were effective in reducing craving to abused substances or food, individuals would be unlikely to take the craving-reducing drugs unless they had tolerable side effects. […] Therefore, usage of this compound should not be adversely affected by negative opinions of the individuals to whom the drug is administered nor should it cause stimulation following administration.

For data set [9], the system named is cocaine-dependent patients. Briefly: multi-center double blind study in cocaine-dependent patients, interim analysis (Example 6). As to conditions: for Patients with Weight Loss ≧5 lb. / Weight Change: patients completing ≧28 days of treatment. In kind it is in vivo. The method, then: In a multi-center double blind study an interim analysis had been conducted on approximately 160 cocaine-dependent patients who had been given daily doses of 10 mg, 25 or 100 mg of SCH39166 or of a placebo over a test period of eight weeks.
The Body Mass Index (BMI) and the patient weight were measured at the beginning and end of the study. The BMI is determined by the weight (kg)/height^2 (meters). Patients having BMI's of 20.0-24.9 are considered to be of normal weight, while patients having BMI's over 25.0 are considered to be overweight.
Table 1B indicates the percentage of patients with an initial BMI of 22 or less and the percentage of patients with a BMI of at least 26 who lost at least one unit of BMI.

Setting [10] is: daily doses of 10, 25 or 100 mg over eight weeks.

For `O=C(CCCN1CCC(O)(c2ccc(Cl)cc2)CC1)c1ccc(F)cc1` [haloperidol], the adverse side effects result in data set [1] is on record as “significant adverse side effects, such as dysphoria, restlessness or stiffness”.

On to `CCN1CCC[C@H]1CNC(=O)c1c(O)c(Cl)cc(Cl)c1OC` [raclopride, reference compound], for which, in the data set with male CF-1 mice, the “cocaine induced increase in locomotor activity” value is “only affected the cocaine induced increase in locomotor activity at relatively high doses” and the “locomotor activity, drug administered alone” value is “dose dependent decrease in locomotor activity”. Besides, the “block of the response-reinstating effects of food reinforcement” value in data set [2] was “sufficient to block the response-reinstating effects of food reinforcement”.

On to `CN1CCc2cc(Cl)c(O)cc2[C@H]2c3ccccc3CC[C@@H]21` [SCH 39166, (−)- trans-6,7,7a,8,9,13b-hexahydro-3-chloro-2-hydroxy-N-methyl-5H-benzo [d]-naphtho-[2,1-b]azepine], for which, in the data set with rodent, the “relapse associated with the effects of food and environmental cues associated with food” value was “can block the relapse”. In [3], the “food intake 2 hours after NPY administration” value is “significant decrease in food intake”. In the data set with ob/ob mice, the “seventy two hour cumulative food intake decrease” value is on record as 17%. Moreover, in [4] (10 mg dose), the “% of Patients At Least One Day Since Last Cigarette” value turned out to be 57%. Besides, the “% of Patients Abstaining from Alcohol for at Least 1 day” value in data set [4] (25 mg dose) is given as 41%. In addition, in the data set on healthy volunteers, the amphetamine dysphoric effects entry was “attenuation” and the amphetamine euphoric effects result is “attenuation”. Further, in the data set with monkeys, the “increase in the dose of cocaine required to restore characteristic self-administration performances” value was ≥ 3 fold. Besides, the “bar press rate relative to saline-treated control animals” value in data set [5] (0.01 mpk subcutaneously 30 minutes before session, FR30) is reported as “significantly reduced the bar press rate”. The “response rate across doses” value in data set [5] (SCH 23390 0.003-0.03 mpk, SCH 39166 0.001-0.3 mpk, subcutaneously) is reported as “dose-related decrease in response rate until responses were eliminated at the highest dose”. For the same molecule, the “relapse associated with the effects of food and environmental cues associated with food” value in the data set with primate is reported as “can block the relapse”. Further, the “effect on total food intake, meal size or feeding rate” value in data set [6] was “no effect”. In the data set on male CF-1 mice, the “cocaine induced increase in locomotor activity” value was “blocked the cocaine induced increase in locomotor activity at all doses of cocaine tested” and the “locomotor activity, drug administered alone” value was “dose dependent decrease in locomotor activity”. Further, the “attenuation of cocaine-seeking behavior” value in data set [7] is recorded as “able to attenuate the cocaine-seeking behavior”. In data set [8] (Visual Analog Scale, 100 mg), the “reduction in cocaine desire” value was “greatest reduction in cocaine desire”. Also, the “desire to take cocaine” value in data set [8] (Visual Analog Scale, compared with placebo) was “significantly lower”. Further, the “dysphoric effects, such as anxiety, after cocaine administration” value in data set [8] (Visual Analog Scale, pre-treated patients) was “lower”. Moreover, the “euphoric "high" following cocaine administration” value in data set [8] (Visual Analog Scale, pre-treated patients, particularly a dose of 100 mg) is reported as “lower”. The “"bad drug effects"” value in [8] (in vivo) is recorded as “not significantly different from the placebo”. Also, the “systolic and diastolic blood pressure elevations caused by cocaine” value in data set [8] (in vivo, 30 mg/kg) is listed as “did not adversely affect”. Also, in data set [9] (10 mg daily), the “Patients with Weight Loss ≧1 BMI UNIT, Init. BMI ≦22” value is recorded as 2/9 (22%); the “Patients with Weight Loss ≧1 BMI UNIT, Init. BMI ≧26” value is given as 2/10 (20%); the “Patients with Weight Loss ≧5 lb.” value was found to be 27%; the “Weight Change” value is given as −1.4 pounds. Moreover, in data set [9] (10 mg dose), the “% of Patients Abstaining from Alcohol for at Least 1 day” value is listed as 43%, the “% of Patients Abstaining from Alcohol for at Least 3 days” value is 23% and the “% of Patients At Least 3 Days Since Last Cigarette” value came to 27%. Besides, in data set [9] (25 mg daily), the “Patients with Weight Loss ≧1 BMI UNIT, Init. BMI ≦22” value is reported as 2/10 (20%); the “Patients with Weight Loss ≧1 BMI UNIT, Init. BMI ≧26” value is on record as 4/13 (30%); the “Patients with Weight Loss ≧5 lb.” value is 22%; the “Weight Change” value is listed as −0.9 pounds. In data set [9] (25 mg dose), the “% of Patients Abstaining from Alcohol for at Least 3 days” value is given as 31%, the “% of Patients At Least 3 Days Since Last Cigarette” value came to 19% and the “% of Patients At Least One Day Since Last Cigarette” value is 53%. For the same molecule, in data set [9] (100 mg daily), the “Patients with Weight Loss ≧1 BMI UNIT, Init. BMI ≦22” value is listed as 1/6 (17%); the “Patients with Weight Loss ≧1 BMI UNIT, Init. BMI ≧26” value was 10/14 (71%); the “Patients with Weight Loss ≧5 lb.” value was determined as 45%; the “Weight Change” value is recorded as −3.3 pounds. For the same molecule, in data set [9] (100 mg dose), the “% of Patients Abstaining from Alcohol for at Least 1 day” value turned out to be 59%, the “% of Patients Abstaining from Alcohol for at Least 3 days” value was 48%, the “% of Patients At Least 3 Days Since Last Cigarette” value came to 17% and the “% of Patients At Least One Day Since Last Cigarette” value is on record as 38%. The “reducing weight in the obese population” value in data set [9] (BMI of 26 or greater, particularly at 100 mg/day) was “especially effective in reducing weight”. Also, in data set [9] (setting [10]), the reducing alcohol consumption result is given as “effective”, the reducing cigarette smoking entry is given as “effective”, the reducing cocaine usage result is listed as “did not show efficacy” and the reducing weight entry is on record as “effective”. In addition, the reducing cigarette smoking entry in data set [9] (low doses) was “efficacious in reducing cigarette smoking”.
